Laboratory results taken from patent US11396516B2, “Tricyclic compounds as Cyp1 inhibitors” (The General Hospital Corporation, priority 2017, dated 2022).
Entries after “also recorded” stand apart in the source; their conditions may differ. Marks after values point to notes of the source that are not given here.

Experiments:
[1] = system: zebrafish embryos treated with DOX (cardiomyopathy phenotype); assay: Zebrafish doxorubicin cardiomyopathy model (rescue from phenotype); format: in vivo; details: Danio rerio; rescue from DOX (100 μM) cardiomyopathy phenotype, 40 hours post-treatment; read-out: EC50 is zebrafish
Method: Zebrafish embryos at 30 hours post-fertilization were treated with DOX at 100 μM in 96-well plates as previously described (Liu et al., 2014). Tested compounds were dissolved in DMSO and added at concentrations ranging from 3 nM to 10 μM (n=6 fish per dose; <1% DMSO v/v). The cardiomyopathy phenotype (decreased cardiac contraction, pericardial edema, and decreased tail blood flow) was assessed under light microscopy (5× magnification) at 40 hours post-treatment (hpt). Percent rescue from the cardiomyopathy phenotype was calculated for each concentration tested. Zebrafish were considered to be rescued from DOX-induced cardiomyopathy if all three features of the phenotype were absent. For the tested compounds, each dose-response experiment was repeated three times.
Dose-response curves were constructed using Prism (GraphPad).
Zebrafish were treated with DOX and assessed for the development of the cardiomyopathy phenotype (decreased cardiac contraction, pericardial edema, and decreased tail blood flow). Zebrafish were considered to be rescued if all three features of the cardiomyopathy phenotype were absent upon co-treatment with a tested compound. Referring to FIGS. 3-9, data are depicted as mean+/−standard error (n=6 fish per dose; each experiment performed in triplicate).

zebrafish embryos = assay: Zebrafish toxicity in the absence of doxorubicin (TD50); details: absence of doxorubicin treatment
Method: Dose-response curves were constructed using Prism (GraphPad). Raw data representing percent rescue at each dose was log-transformed, and EC50 values were calculated using nonlinear regression analysis. The median toxic dose (TD50) was defined for each compound by assessing for pericardial edema, non-specific deformities, and death in the absence of doxorubicin treatment (data not shown). Concentrations at and above the TD50 (toxic dose) were excluded from dose-response curves.

HL-1 cardiomyocytes = assay: Cultured HL-1 cardiomyocyte model (DOX-induced apoptosis, viability); format: cell-based, mouse; details: doxorubicin 5 μM
Method: The cardiomyocyte cell line HL-1 derived from mouse atrial tumor was a gift from W. Claycomb. Cells were cultured as previously published (Claycomb et al., 1998) and treated with doxorubicin 5 μM with or without the tested compounds at a concentration up to 50 μM. Viability was assessed after 18 hours of using a CellTiter-Glo Luminescent assay from Promega. Each dose-response experiment was repeated three times.
Compounds were tested in HL-1 cultured cardiomyocytes to assess for efficacy in preventing DOX-induced apoptosis. Cell viability was assessed as described in the materials and methods section.

CYP1A [2] = target: CYP1A (Homo sapiens (Human), UniProt P05177); assay: CYP inhibition assay, human liver microsomes; format: biochemical; details: human liver microsomes, phenacetin 10 μM; read-out: IC50 (M) CYP1A
Method: (§1) CYP inhibition experiments were performed by Cerep Panlabs (Eurofins) using human liver microsomes and the following substrates: phenacetin 10 μM (CYP1A), buproprion 100 μM (CYP2B6), paclitaxel 10 μM (CYP2C8), diclofenac 10 μM (CYP 2C9), omeprazole 0.5 μM (CYP2C19), dextromethorphan 5 μM (CYP2D6), and testosterone 50 μM (CYP3A). Metabolites of each substrate were measured using LC-MS/MS. Mean percent inhibition was calculated using the following reference inhibitors: furafylline (CYP1A), clopidogrel (CYP2B6), montelukast (CYP2C8), sulfaphenazole (CYP2C9), oxybutynin (CYP2C19), quinidine (CYP2D6), and ketoconazole (CYP3A). […] All concentrations were tested in duplicate to obtain the final results.
(§2) The ability of the tested compounds to inhibit a panel of CYP enzymes in vitro was assessed using a series of human liver microsome assays.

CYP2B6 = CYP2B6 (Homo sapiens (Human), UniProt P20813); assay: CYP inhibition assay, human liver microsomes; format: biochemical; details: buproprion 100 μM
Method: as §1, §2

CYP2C19 = CYP2C19 (Homo sapiens (Human), UniProt P33261); assay: CYP inhibition assay, human liver microsomes; format: biochemical; details: omeprazole 0.5 μM
Method: as §1, §2

CYP2C8 = CYP2C8 (Homo sapiens (Human), UniProt P10632); assay: CYP inhibition assay, human liver microsomes; format: biochemical; details: paclitaxel 10 μM, reference montelukast
Method: as §1, §2

CYP2C9 = CYP2C9 (Homo sapiens (Human), UniProt P11712); assay: CYP inhibition assay, human liver microsomes; format: biochemical; details: diclofenac 10 μM, reference sulfaphenazole
Method: as §1, §2

CYP2D6 = CYP2D6 (Homo sapiens (Human), UniProt P10635); assay: CYP inhibition assay, human liver microsomes; format: biochemical; details: dextromethorphan 5 μM
Method: as §1, §2

CYP3A = CYP3A (Homo sapiens, UniProt P08684); assay: CYP inhibition assay, human liver microsomes; format: biochemical
Method: as §1, §2

[3] = system: DOX-induced cardiac apoptosis in C57/B16 mice; assay: Mouse annexin model of acute DOX-induced cardiotoxicity (Anx-750 imaging); format: in vivo
Method: DOX fluorescence imaging was carried out on IVIS spectrum with the filter setting 500 nm excitation/600 nm emission, 30 second exposure, with 135 μm in-plane resolution. A series of DOX phantoms, ranging from 0 to 0.03 mM was prepared in saline, and imaged on the IVIS spectrum with identical settings. Anx-750 fluorescence was detected with the filter setting 745 nm excitation/800 nm emission, 30 second exposure, and 135 μm resolution.
Annexin and DOX fluorescence signal was quantified and analyzed in ImageJ (National Institute of Health). For each heart, fluorescence intensity was averaged across 4-6 slices. Annexin uptake was normalized to the saline injected control animals. DOX fluorescence in the heart was quantified by calculating the signal-to-noise ratio (SNR=mean fluorescence intensityheart/standard deviationair). A threshold of two standard deviations above the saline injected control animals was applied to all DOX injected animals, with or without therapeutics. Only animals that met the threshold (thus DOX positive hearts) were included in the analysis. All statistical analysis was performed in Prism (Graphpad).
Doxorubicin was dissolved in 0.9% normal saline and administered at a dose of 15 mg/kg to adult C57/B16 mice via i.p. injection. For the treatment arm, compound of example 2 was dissolved in 10% DMSO and 90% olive oil (carrier) or carrier alone was administered via intraperitoneal injection on the contralateral side.
Twenty-two hours after DOX and treatment injections, Anx-750 (Annexin Vivo 750, Perkin Elmer) was injected intravenously according to manufacturer's instructions. After 2 hours of probe circulation, hearts were excised, sectioned into 1-mm slices along the short axis, and imaged on a commercial imaging system (IVIS spectrum, Perkin Elmer) to assess apoptosis as previously described (Chen et al., 2011).
DOX uptake in the heart was assessed by reflectance fluorescence imaging, and the resultant apoptosis was simultaneously imaged with Anx-750, a near-infrared fluorescent Annexin V probe (Annexin-Vivo 750 is an Annexin V conjugate with a near-infrared fluorochrome, see Chen et al., 2011). […] Referring to FIGS. 1A-1D, * p<0.05, ** p<0.01, and *** p<0.001, ANOVA. Carrier=10% DMSO+90% olive oil.

CYP1A [4] = assay: Zebrafish CYP1A Western blot; format: in vivo; details: co-treatment with DOX, 10 μM
Method: Assessing RNA and protein levels was performed using quantitative PCR (FIG. 2A) and Western blot with a zebrafish-specific antibody against CYP1A (FIG. 2B). […] This effect was seen as early as 18 hours post-treatment, prior to the development of the cardiomyopathy phenotype at 42 hours post-treatment.

CYP1 enzymes = assay: Zebrafish CYP1 enzyme levels after DOX treatment; details: for levels of CYP1 enzymes after doxorubicin treatment: doxorubicin alone
[5] = system: zebrafish embryos treated with DOX (cardiomyopathy phenotype); assay: Zebrafish doxorubicin cardiomyopathy model (rescue from phenotype); format: in vivo; details: visnagin 20 μM plus AHR agonist
CYP1A [6] = assay: Zebrafish proteomics; format: in vivo; details: zebrafish embryos, 40 hours post-treatment; visnagin 20 μM
Method: (§3) The proteomics analysis was carried out as described in the material and methods section. All protein abundance values are normalized to DMSO-treated control zebrafish. * p<0.05 compared to the DMSO control using the Benjamini-Hochberg method of correcting for multiple hypotheses.

cyp1b1 = assay: Zebrafish proteomics; format: in vivo; details: zebrafish embryos, 40 hours post-treatment; visnagin 20 μM
Method: as §3

cyp1c1 = assay: Zebrafish proteomics; format: in vivo; details: zebrafish embryos, 40 hours post-treatment; visnagin 20 μM
Method: as §3

dhrs13l1 = assay: Zebrafish proteomics; format: in vivo; details: zebrafish embryos, 40 hours post-treatment; visnagin 20 μM
rad9a = assay: Zebrafish proteomics; format: in vivo; details: zebrafish embryos, 40 hours post-treatment; visnagin 20 μM
sqstm1 = assay: Zebrafish proteomics; format: in vivo; details: zebrafish embryos, 40 hours post-treatment; visnagin 20 μM
thbs1b = assay: Zebrafish proteomics; format: in vivo; details: zebrafish embryos, 40 hours post-treatment; visnagin 20 μM
LOC100332237 = assay: Zebrafish proteomics; format: in vivo; details: zebrafish embryos, 40 hours post-treatment; visnagin 20 μM
slc2a1a = assay: Zebrafish proteomics; format: in vivo; details: zebrafish embryos, 40 hours post-treatment; visnagin 20 μM
gstp2 = assay: Zebrafish proteomics; format: in vivo; details: zebrafish embryos, 40 hours post-treatment; visnagin 20 μM
[7] = system: C-reactive protein 3 (CRP3); assay: Zebrafish proteomics; format: in vivo
Method: (§4) Expression levels of 6085 proteins were measured in zebrafish treated with doxorubicin with or without visnagin. […] This is in contrast to other proteins that were modulated to a similar extent in fish treated with doxorubicin but were not reversed by co-treatment with visnagin. For instance, levels of myosin heavy chain B (MYHB) were decreased in fish treated with DOX alone and in fish treated with DOX+visnagin. Downregulation of MYHB has been previously described with DOX treatment (Ito H, PNAS 1990). Likewise, the inflammatory marker C-reactive protein 3 (CRP3) was increased in both DOX and DOX+visnagin-treated fish.

[8] = system: myosin heavy chain B (MYHB); assay: Zebrafish proteomics; format: in vivo
Method: as §4

[9] = patients treated with DOX; cited from earlier work

Chain of CYP2C19 (P33261 whole entry): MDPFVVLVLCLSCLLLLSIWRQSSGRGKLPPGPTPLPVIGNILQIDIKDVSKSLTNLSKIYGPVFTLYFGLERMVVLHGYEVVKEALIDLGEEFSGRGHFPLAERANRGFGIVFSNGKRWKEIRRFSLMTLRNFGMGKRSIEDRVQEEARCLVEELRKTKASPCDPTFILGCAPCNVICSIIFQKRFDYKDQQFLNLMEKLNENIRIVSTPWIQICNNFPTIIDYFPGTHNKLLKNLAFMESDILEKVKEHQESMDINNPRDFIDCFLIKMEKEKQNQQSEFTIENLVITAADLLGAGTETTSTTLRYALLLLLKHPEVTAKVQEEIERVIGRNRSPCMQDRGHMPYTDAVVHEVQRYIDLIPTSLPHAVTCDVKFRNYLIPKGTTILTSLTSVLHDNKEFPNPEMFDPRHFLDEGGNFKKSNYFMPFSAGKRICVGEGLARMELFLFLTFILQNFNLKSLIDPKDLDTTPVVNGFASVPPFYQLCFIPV
Chain of CYP2B6 (P20813 whole entry): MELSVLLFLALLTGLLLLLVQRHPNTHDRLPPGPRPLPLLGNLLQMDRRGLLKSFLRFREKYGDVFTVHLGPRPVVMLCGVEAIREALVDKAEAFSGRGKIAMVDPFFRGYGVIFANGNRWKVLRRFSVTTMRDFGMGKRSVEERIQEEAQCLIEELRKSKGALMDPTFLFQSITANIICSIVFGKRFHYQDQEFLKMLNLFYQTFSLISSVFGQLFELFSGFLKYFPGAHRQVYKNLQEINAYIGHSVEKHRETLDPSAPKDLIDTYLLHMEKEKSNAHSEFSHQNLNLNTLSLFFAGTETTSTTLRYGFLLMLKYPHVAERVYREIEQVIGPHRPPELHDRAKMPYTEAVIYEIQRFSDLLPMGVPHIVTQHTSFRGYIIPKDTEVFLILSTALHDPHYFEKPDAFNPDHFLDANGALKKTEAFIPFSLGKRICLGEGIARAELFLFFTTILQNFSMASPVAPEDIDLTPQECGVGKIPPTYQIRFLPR
Chain of CYP3A (P08684 2-503 limits assumed): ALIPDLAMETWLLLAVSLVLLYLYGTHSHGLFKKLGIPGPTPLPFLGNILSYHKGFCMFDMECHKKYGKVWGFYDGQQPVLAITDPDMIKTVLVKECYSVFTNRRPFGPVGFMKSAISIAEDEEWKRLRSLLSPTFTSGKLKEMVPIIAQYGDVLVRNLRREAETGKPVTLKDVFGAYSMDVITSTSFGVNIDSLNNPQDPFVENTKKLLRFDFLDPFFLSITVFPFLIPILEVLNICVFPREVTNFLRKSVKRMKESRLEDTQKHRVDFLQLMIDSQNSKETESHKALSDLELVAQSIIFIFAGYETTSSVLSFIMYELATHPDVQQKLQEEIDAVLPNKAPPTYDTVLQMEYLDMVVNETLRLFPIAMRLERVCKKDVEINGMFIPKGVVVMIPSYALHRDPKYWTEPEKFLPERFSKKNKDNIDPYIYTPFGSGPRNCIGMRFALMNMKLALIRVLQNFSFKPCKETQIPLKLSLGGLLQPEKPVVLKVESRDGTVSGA
Chain of CYP2D6 (P10635 whole entry): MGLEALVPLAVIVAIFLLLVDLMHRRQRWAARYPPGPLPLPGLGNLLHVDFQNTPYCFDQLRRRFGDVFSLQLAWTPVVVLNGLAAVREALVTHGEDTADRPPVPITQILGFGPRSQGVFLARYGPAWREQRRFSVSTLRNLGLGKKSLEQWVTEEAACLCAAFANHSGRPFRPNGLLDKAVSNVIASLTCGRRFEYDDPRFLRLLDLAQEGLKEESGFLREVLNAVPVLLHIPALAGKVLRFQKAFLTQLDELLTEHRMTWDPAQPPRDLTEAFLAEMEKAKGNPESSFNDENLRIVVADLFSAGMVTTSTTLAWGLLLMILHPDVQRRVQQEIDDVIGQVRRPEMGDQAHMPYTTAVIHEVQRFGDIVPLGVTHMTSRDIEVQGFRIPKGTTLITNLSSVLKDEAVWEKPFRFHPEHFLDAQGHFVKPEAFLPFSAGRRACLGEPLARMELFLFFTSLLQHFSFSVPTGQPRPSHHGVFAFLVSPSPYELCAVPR
Chain of CYP2C8 (P10632 whole entry): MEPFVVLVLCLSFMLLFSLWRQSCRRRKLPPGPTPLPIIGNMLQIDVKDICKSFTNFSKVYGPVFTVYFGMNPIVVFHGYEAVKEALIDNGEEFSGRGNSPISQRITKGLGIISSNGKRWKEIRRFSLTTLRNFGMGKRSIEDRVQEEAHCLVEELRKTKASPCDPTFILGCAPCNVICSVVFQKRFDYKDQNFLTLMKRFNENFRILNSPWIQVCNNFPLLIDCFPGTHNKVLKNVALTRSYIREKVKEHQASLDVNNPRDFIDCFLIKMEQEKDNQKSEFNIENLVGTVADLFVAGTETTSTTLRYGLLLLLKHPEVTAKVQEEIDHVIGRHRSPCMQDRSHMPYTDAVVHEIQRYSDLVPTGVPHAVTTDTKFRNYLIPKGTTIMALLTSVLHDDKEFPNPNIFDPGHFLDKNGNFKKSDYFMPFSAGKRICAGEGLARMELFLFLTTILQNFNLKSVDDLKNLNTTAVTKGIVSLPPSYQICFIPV
Chain of CYP2C9 (P11712 whole entry): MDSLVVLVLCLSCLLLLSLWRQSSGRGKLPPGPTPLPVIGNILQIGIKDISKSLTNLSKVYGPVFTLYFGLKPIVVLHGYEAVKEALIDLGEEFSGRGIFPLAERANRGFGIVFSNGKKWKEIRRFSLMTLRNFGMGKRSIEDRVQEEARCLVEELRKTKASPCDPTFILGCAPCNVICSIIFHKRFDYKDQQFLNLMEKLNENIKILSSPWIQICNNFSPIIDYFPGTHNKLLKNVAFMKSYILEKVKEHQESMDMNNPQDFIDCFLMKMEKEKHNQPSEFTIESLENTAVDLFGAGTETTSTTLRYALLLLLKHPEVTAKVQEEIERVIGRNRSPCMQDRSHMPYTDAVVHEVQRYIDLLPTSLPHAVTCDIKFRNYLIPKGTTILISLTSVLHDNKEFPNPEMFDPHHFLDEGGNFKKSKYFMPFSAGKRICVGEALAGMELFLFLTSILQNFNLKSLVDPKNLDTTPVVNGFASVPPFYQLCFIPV
Chain of CYP1A (Homo sapiens (Human), UniProt P05177) (P05177 whole entry): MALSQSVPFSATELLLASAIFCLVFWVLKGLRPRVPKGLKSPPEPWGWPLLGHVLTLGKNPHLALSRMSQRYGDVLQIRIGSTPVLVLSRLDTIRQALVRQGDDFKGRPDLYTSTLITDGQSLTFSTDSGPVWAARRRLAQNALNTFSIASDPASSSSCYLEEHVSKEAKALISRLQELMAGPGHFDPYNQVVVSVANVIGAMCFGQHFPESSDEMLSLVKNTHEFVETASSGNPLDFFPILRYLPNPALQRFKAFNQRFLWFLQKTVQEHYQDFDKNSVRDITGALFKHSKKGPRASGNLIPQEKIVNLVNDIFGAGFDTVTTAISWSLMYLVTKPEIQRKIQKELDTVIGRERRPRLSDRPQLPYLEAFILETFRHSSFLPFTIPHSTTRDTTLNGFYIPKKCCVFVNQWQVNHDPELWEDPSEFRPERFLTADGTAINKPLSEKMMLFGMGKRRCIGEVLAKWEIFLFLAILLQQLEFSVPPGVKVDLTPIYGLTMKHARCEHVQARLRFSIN

CC(C)(C)OC(=O)NCCCOc1c2ccoc2cc2oc(=O)ccc12 [Example 2, tert-butyl (3-((7-oxo-7H-furo[3,2-g]chromen-4-yl)oxy)propyl)carbamate]
EC50 [1]: 0.007 µM
toxic dose TD50 in the zebrafish model (zebrafish embryos): > 10 µM
EC50 (HL-1 cardiomyocytes; Mus musculus, HL-1, viability after 18 hours, CellTiter-Glo, read-out: EC50 in HL-1 Cells): > 50 µM
efficacy in HL-1 cell culture model (HL-1 cardiomyocytes; doses up to 50 μM): ineffective
IC50 (CYP1A [2]): 1.6e-06 M
IC50 (CYP2B6): 88 µM
Mean % Inhibition CYP2B6 (CYP2B6; reference clopidogrel): 67.2%
IC50 (CYP2C19): 12 µM
Mean % Inhibition CYP2C19 (CYP2C19; reference oxybutynin): 57.0%
Mean % Inhibition CYP2C8 (CYP2C8): 7.1%
Mean % Inhibition CYP2C9 (CYP2C9): 2.4%
IC50 (CYP2D6): 2 µM
Mean % Inhibition CYP2D6 (CYP2D6; reference quinidine): 84.4%
IC50 (CYP3A; probe testosterone 50 μM): 9.3 µM
Mean % Inhibition CYP3A (CYP3A; testosterone 50 μM, reference ketoconazole): 62.7%
cardiac apoptosis / Annexin (Anx-750) uptake ([3]; DOX 15 mg/kg i.p., doses of 0.1 mg/kg, 1 mg/kg and 2 mg/kg i.p., 24 hours): significant reduction in apoptosis; also recorded: reduced significantly; also recorded: significant cardioprotective effect
Annexin-Vivo fluorescence in the mouse heart / cardioprotection ([3]; DOX 15 mg/kg, 0.1 mg/kg i.p.): significantly reduced; also recorded: cardioprotective
ex vivo Anx fluorescence in heart ([3]; DOX 15 mg/kg, dose of 2 mg/kg): marked reduction
potency relative to visnagin in reducing DOX-induced cardiomyocyte apoptosis in mice ([3]; compared to visnagin): 250 fold
induction of CYP1A by DOX, Western blot (CYP1A [4]): mitigated induction of CYP1A
effect on DOX-induced increase of CYP1 enzyme levels (CYP1 enzymes; co-treatment with doxorubicin): completely abolished

COC(=O)c1csc(C(=O)c2c[nH]c3ccccc23)n1 [methyl 2-(1H-indole-3-carbonyl)-1,3-thiazole-4-carboxylate]
effect on visnagin-mediated rescue from doxorubicin-induced cardiomyopathy [5]: abrogated

COc1cccc2c1C(=O)c1c(O)c3c(c(O)c1C2=O)C[C@@](O)(C(=O)CO)C[C@@H]3O[C@H]1C[C@H](N)[C@H](O)[C@H](C)O1 [DOX, doxorubicin]
cardiac annexin uptake, DOX only group ([3]; DOX 15 mg/kg + carrier vs saline control): increased significantly
Protein Abundance (Normalized to DMSO) cyp1a (CYP1A [6]): 9.52*
Protein Abundance (Normalized to DMSO) cyp1b1 (cyp1b1): 6.26*
Protein Abundance (Normalized to DMSO) cyp1c1 (cyp1c1): 7.91*
Protein Abundance (Normalized to DMSO) dhrs13l1 (dhrs13l1): 3.02*
Protein Abundance (Normalized to DMSO) rad9a (rad9a): 2.92*
Protein Abundance (Normalized to DMSO) sqstm1 (sqstm1): 2.78*
Protein Abundance (Normalized to DMSO) thbs1b (thbs1b): 2.29*
Protein Abundance (Normalized to DMSO) LOC100332237 (LOC100332237): 3.03*
Protein Abundance (Normalized to DMSO) slc2a1a (slc2a1a): 1.19
Protein Abundance (Normalized to DMSO) gstp2 (gstp2): 2.32*
levels of C-reactive protein 3 (CRP3) [7]: increased
levels of myosin heavy chain B (MYHB) [8]: decreased
patients with dose-dependent cardiotoxicity [9]: up to 9%
levels of CYP1 enzymes after doxorubicin treatment (CYP1 enzymes): robust induction
levels of CYP1 enzymes after doxorubicin treatment (CYP1 enzymes; listed as doxorubicin): significant upregulation; also recorded: significantly increased
